Reference: patent US20050130203A1, “Novel GABAB receptor DNA sequences” (Board of Regents, The University of Texas System, priority 1998, published 2005)

How the values were obtained:
HG20 [1] = target: T1, HG20 (Homo sapiens, UniProt O75899)
HG20 [2] = target: T1, HG20; remark: listed apart in the source

T1 sequence (O75899 52-941): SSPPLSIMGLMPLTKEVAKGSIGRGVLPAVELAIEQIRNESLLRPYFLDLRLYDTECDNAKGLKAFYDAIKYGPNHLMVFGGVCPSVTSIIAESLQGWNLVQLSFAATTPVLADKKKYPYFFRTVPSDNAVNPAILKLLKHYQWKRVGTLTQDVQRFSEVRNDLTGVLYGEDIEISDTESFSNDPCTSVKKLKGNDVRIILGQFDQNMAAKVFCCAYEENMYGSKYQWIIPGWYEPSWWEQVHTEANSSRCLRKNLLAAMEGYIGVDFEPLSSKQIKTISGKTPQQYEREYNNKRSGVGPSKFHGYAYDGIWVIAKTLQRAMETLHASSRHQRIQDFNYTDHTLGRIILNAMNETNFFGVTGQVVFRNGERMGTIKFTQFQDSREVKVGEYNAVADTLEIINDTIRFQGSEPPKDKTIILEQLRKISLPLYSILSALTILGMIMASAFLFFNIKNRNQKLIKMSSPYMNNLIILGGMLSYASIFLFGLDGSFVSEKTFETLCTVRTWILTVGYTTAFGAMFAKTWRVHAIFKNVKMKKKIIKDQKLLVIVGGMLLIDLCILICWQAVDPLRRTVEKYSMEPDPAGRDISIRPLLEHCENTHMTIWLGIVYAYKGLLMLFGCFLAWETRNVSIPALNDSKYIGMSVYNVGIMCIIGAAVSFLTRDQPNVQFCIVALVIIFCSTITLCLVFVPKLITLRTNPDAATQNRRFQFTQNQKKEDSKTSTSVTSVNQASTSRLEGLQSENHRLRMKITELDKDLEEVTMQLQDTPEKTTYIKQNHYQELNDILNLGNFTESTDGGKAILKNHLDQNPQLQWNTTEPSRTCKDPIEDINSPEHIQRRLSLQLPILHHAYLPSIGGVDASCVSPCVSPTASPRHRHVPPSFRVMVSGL

Compound | activity in Xenopus oocyte functional assay (HG20 [1]) | activity in Xenopus melanophore functional assay (HG20 [2]) | pigment aggregation or dispersion response (HG20 [2])
N[C@@H](CCC(=O)O)C(=O)O [L-Glutamate, (L)-glutamic acid] | no activity | no activity | no pigment aggregation or dispersion response
NC/C=C\C(=O)O [cis-4-aminocrotonic acid] |  |  | no pigment aggregation or dispersion response
O=S(=O)(O)C1CCNCC1 [piperidine-4-sulfonic acid] |  |  | no pigment aggregation or dispersion response
(−)Baclofen | no activity | no activity | no pigment aggregation or dispersion response
